Data reported in patent US7569607B2, “Spider esters in personal care applications” (SurfaTech Corporation, priority 2005, dated 2009).

Assay: Sun Screen Solubility (appearance of sunscreen dissolved in ester)
Assay type: physicochemical
Details: for Age Appearance: after 48 hours at room temperature, 24 hours in refrigerator (37° F.) and 48 hours at room temperature; for Initial Appearance: solvent ester not named

| Age Appearance (1% weight sunscreen) | Initial Appearance (1% weight sunscreen) | Age Appearance (3% weight sunscreen) | Initial Appearance (3% weight sunscreen) | SMILES |
| --- | --- | --- | --- | --- |
| Very Slight Haze^(2) | Clear | Very Slight Haze^(2) | Clear | COc1ccc(C(=O)c2ccccc2)c(O)c1 [Benzophenone 3] |
| Clear | Clear | – | – | CCCCC(CC)COC(=O)C=Cc1ccc(OC)cc1 (stereo not drawn) [Octylmethoxyciminate] |
